The values that follow come from PMC2659691 (Journal of Medicinal Chemistry, 2009).

For experiment [1], the target named is T. brucei TryR (Trypanosoma brucei brucei, UniProt P39051). The experiment is described as follows: TryR inhibition, high-throughput microplate assay. The class given is biochemical.
In experiment [2] the target is T. cruzi TryR (Trypanosoma cruzi, UniProt P28593). The experiment can be described thus: TryR inhibition, high-throughput microplate assay. In kind it is biochemical.
T. cruzi TryR, sequence (P28593 whole entry): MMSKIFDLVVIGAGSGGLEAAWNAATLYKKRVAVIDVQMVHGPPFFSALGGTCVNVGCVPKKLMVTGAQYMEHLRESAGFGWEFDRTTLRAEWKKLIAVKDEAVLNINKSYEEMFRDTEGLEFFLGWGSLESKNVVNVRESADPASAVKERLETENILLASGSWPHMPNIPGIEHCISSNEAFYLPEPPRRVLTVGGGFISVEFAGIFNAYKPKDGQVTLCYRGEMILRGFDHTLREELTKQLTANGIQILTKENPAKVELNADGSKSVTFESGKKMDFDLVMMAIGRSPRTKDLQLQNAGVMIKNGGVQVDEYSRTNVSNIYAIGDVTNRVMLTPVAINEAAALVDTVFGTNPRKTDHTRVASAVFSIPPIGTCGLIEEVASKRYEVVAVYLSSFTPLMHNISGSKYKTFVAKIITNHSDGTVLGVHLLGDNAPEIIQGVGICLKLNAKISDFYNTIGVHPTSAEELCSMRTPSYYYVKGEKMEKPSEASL

T. brucei TryR, sequence (P39051 whole entry): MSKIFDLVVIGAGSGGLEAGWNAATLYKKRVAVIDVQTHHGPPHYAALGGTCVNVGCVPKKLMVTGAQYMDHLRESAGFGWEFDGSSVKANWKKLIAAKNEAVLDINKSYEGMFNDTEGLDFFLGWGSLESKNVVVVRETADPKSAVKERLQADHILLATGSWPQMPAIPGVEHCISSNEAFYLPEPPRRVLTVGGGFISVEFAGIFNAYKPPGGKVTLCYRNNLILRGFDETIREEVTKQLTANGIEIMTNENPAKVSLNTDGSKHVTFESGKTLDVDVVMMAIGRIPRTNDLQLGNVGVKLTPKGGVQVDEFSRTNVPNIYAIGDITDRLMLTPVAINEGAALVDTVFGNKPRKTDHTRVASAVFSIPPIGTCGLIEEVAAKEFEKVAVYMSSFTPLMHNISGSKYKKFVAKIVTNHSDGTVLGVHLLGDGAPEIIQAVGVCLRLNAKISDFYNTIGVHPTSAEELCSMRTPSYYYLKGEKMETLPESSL

In the case of `O=C(CN1C(=O)C2CC=CCC2C1=O)Nc1ccccc1Sc1ccc(Cl)cc1` (stereo not shown) [Compound 12], the “inhibitory activity against TryR (in words)” value in experiment [1] and in experiment [2] was “neither 12 nor 16 displayed significant inhibitory activity” throughout.

With `O=C(CN1C(=O)NC2(CCCCCC2)C1=O)Nc1ccccc1Sc1ccccc1` [Compound 16], the “inhibitory activity against TryR (in words)” value in experiment [1] and in experiment [2] was “neither 12 nor 16 displayed significant inhibitory activity” each time.
